Experiments:
HBV polymerase = target: T1, HBV polymerase (Hepatitis B virus genotype A2 subtype adw2, UniProt P03159); experiment: In vitro reverse transcription activity of HBV polymerase (ELISA-type, DIG/biotin nucleotides); format: biochemical; conditions: read-out: Inhibition activity on HBV-RT (%); for inhibition at 0.01 µg/mL: 0.01 μg/ml test compound; for inhibition at 0.1 µg/mL: 0.1 μg/ml test compound; for inhibition at 1 µg/mL: 1 μg/ml test compound
T1 construct: made in house; host or cells: E. coli
Procedure: The following in vitro experiment was performed to determine the effect of the compounds of formula 1 on the activity of HBV polymerase during reverse transcription.
The present inventors submitted application for a patent concerning HBV polymerase genetically expressed in and separated from E. coli, the process of its preparation, and the method to measure the enzyme activities (KR 94-3918, KR 96-33998). In the present experiments HBV polymerase was used which had been expressed in E. coli as stated above.
The method used in the present invention to measure in vitro reverse transcribing activities of HBV polymerase is as follows. Basic principles are the same as for ELISA. Nucleotides with biotin or digoxigenin group attached are included as substrates and anti-DIG antibodies attached to peroxidase enzyme recognize the polymerized substrates.
To the wells coated with streptavidin, 20 μl of HBV polymerase, 20 μl of reaction mixture (10 μM each of DIG-UTP and Biotin-UTP, 46 mM Tris-HCl, 266 mM KCl, 27.5 mM MgCl2, 9.2 mM DTT substrate/primer hybrid), and 20 μl of test compound (added to 1, 0.1, and 0.01 μg/ml) were added and allowed to react a 22° C. for 15 hrs. During this reaction, HBV polymerase catalyzes DNA synthesis and digoxigenin and biotin attached to nucleotides form bonds with streptavidin coated on the bottom of wells. When the reaction was done, each well was washed with 250μl of cleaning buffer (pH 7.0) for 30 seconds, which was repeated five times to remove remaining impurities. 200 μl of anti-DIG-POD antibody was added to each well and allowed to react for 1 hr at 37° C., and the wells were washed with cleaning buffer to remove impurities. 200μl each of ABTS™, a substrate of peroxidase, was then added and allowed to react at room temperature for 30 min. Absorbance was measured at 405 nm using ELISA reader.
The percentage of reduction in HBV polymerase activities for reverse transcription was calculated using the group without test compound as a control and the results are shown in Table 3.

HBV = experiment: Inhibition of HBV proliferation in HBV producing cell line HepG 2.2.15 (competitive PCR of culture supernatant); format: cell-based, Hepatitis B virus; conditions: Hepatitis B virus, HepG2.2.15, 168 h, HepG 2.2.15, one week, read-out: Inhibitory effect on the HBV proliferation, Inhibition activity on HBV-RT (%); for inhibition at 0.01 µg/mL: 0.01 μg/ml; for inhibition at 0.1 µg/mL: 0.1 μg/ml; for inhibition at 1 µg/mL: 1 μg/ml
Procedure: The following experiment was performed to determine inhibitory effects of compounds of formula on the proliferation of HBV producing cell line.
To test for antiviral effect, replication and proliferation of HBV were measured in HepG 2.2.15, a human liver cancer cell line.
The cell concentration was adjusted to 1×10^5 cells/ml and 1 ml was added to each well of a 24-well cell culture plate, which was then kept in a culture box for 3-4 days at 37° C. under 5% CO2 until cells grew sufficiently, changing culture medium everyday. When the cells matured sufficiently, the test compounds were added to the final concentrations of 0.01, 0.1, and 1 μg/ml. One week after the addition of test compounds, he culture solution was centrifuged at 5,000 rpm for 10 min. 25 μl of supernatant was transferred to a new tube and 5 μl of lysis solution [0.54N NaOH, 0.06% NP40] was added to each tube. After keeping the tube at 37° C. for 1 hr, 30 μl . of neutralizing solution [0.09NHCl, 0.1MTris-HCl, pH7.4] was added as a reaction solution for competitive polymerase chain reaction (PCR).
PCR was performed using genetic sequence of HBV core protein as a matrix. PCR reaction was carried out by adding 1 unit of Taq polymerase enzyme to 25 pmol of each primer, 250 μM dNTP, 5 μl of PCR reaction solution [0.54N NaOH, 0.06% NP40, 0.09N HCl, 0.1M Tris-HCl, pH 7.4].
DNA polymerized by PCR was electrophoresed on Agarose gel and quantitatively analyzed using an image analyzer (Gel Dcc 1000, Bio-Rad) in order to evaluate the effect of compounds of the present invention on the reduction of HBV proliferation.
3TC (lamivudine) was used as a positive control at the same concentrations as those of the test compounds. The percentage of reduction in HBV proliferation was calculated using the group without test compound as a control and the results are represented in Table 4.

T1 sequence (P03159 whole entry): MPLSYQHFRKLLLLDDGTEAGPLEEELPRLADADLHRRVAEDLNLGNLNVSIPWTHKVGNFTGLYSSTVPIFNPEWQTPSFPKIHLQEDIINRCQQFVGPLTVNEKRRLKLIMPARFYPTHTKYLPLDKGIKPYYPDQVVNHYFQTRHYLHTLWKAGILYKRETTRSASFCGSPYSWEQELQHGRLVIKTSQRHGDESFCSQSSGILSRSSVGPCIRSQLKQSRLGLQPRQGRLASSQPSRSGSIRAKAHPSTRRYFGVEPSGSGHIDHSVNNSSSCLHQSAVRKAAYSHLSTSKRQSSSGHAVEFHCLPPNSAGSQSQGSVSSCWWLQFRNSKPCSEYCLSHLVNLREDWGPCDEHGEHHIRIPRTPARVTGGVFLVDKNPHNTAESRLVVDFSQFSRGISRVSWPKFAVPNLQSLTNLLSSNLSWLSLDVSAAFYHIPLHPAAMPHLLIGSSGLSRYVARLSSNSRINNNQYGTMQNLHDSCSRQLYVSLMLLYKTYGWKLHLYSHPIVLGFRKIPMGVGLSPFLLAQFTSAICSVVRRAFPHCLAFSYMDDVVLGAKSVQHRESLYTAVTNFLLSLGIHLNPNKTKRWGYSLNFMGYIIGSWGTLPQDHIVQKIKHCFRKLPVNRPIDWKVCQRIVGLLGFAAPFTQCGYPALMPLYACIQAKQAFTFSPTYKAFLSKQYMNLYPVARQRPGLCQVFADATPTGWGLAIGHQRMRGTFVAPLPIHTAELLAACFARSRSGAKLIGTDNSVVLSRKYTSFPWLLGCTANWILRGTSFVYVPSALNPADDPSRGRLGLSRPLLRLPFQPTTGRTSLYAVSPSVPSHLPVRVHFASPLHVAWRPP

inhibition at 0.01 µg/mL (HBV polymerase) [%] | inhibition at 0.1 µg/mL (HBV polymerase) [%] | inhibition at 1 µg/mL (HBV polymerase) [%] | melting point [°C] | Structure (SMILES) | inhibition at 0.01 µg/mL (HBV) [%] | inhibition at 0.1 µg/mL (HBV) [%] | inhibition at 1 µg/mL (HBV) [%]
40 | 54 | 78 | 251 to 253 | CSc1ncc(C(=O)NN2CCN(C)CC2)c(Nc2ccc3[nH]ncc3c2)n1 [Example 21, 4-(1H-5-indazolylamino)-N-(4-methyl-1-piperazinyl)-2-methylthio-5-pyrimidinecarboxamide] | – | – | –
28 | 46 | 72 | 244 to 247 | CSc1ncc(C(=O)NN2CCN(C)CC2)c(Nc2ccc3cn[nH]c3c2)n1 [Example 22, 4-(1H-6-indazolylamino)-N-(4-methyl-1-piperazinyl)2-methylthio-5-pyrimidinecarboxamide] | – | – | –
18 | 40 | 51 | 227 to 232 | COC(=O)[C@@H](NC(=O)c1cnc(SC)nc1Nc1ccc2[nH]ncc2c1)[C@@H](C)O [Example 23, 4-(1H-5-indazolylamino)-N-[(1S)-1-(methoxycarbonyl)-(2R)-2-hydroxypropyl]-2-methylthio-5-pyrimidinecarboxamide] | – | – | –
50 | 63 | 82 | 226 to 228 | COC(=O)[C@@H](NC(=O)c1cnc(SC)nc1Nc1ccc2cn[nH]c2c1)[C@@H](C)O [Example 24, 4-(1H-6-indazolylamino)-N-[(1S)-1-(methoxycarbonyl)-(2R)-2-hydroxypropyl]-2-methylthio-5-pyrimidinecarboxamide] | – | – | –
32 | 58 | 91 | 230 to 232 | CSc1ncc(C(=O)NCCCn2ccnc2)c(Nc2ccc3cn[nH]c3c2)n1 [Example 30, N-[3-(1H-1-imidazolyl)propyl]-4-(1H-6-indazolylamino)-2-methylthio-5-pyrimidinecarboxamide] | – | – | –
43 | 58 | 82 | 153 to 155 | CSc1ncc(C(=O)N2CCN(C)CC2)c(Nc2ccc3[nH]ncc3c2)n1 [Example 31, 4-(1H-5-indazolylamino)-5-[(4-methyl-1-piperazinyl)-carbonyl]-2-methylthiopyrimidine] | – | – | –
26 | 40 | 62 | 102 to 106 | CSc1ncc(C(=O)N2CCN(C)CC2)c(Nc2ccc3cn[nH]c3c2)n1 [Example 32, 4-(1H-6-indazolylamino)-5-[(4-methyl-1-piperazinyl)-carbonyl]-2-methylthiopyrimidine] | – | – | –
11 | 32 | 53 | 166 to 170 | CSc1ncc(C(=O)N2CCN(CCO)CC2)c(Nc2ccc3[nH]ncc3c2)n1 [Example 33, 5-[[4-(2-hydroxyethyl)-1-piperazinyl]carbonyl]-4-(1H-5-indazolylamino)-2-methylthiopyrimidine] | – | – | –
15 | 43 | 59 | 114 to 117 | CSc1ncc(C(=O)N2CCN(CCO)CC2)c(Nc2ccc3cn[nH]c3c2)n1 [Example 34, 5-[[4-(2-hydroxyethyl)-1-piperazinyl]carbonyl]-4-(1H-6-indazolylamino)-2-methylthiopyrimidine] | – | – | –

The next lines start with the molecule.

Structure (SMILES) | inhibition at 0.01 µg/mL (HBV polymerase) [%] | inhibition at 0.1 µg/mL (HBV polymerase) [%] | inhibition at 1 µg/mL (HBV polymerase) [%] | melting point [°C] | inhibition at 0.01 µg/mL (HBV) [%] | inhibition at 0.1 µg/mL (HBV) [%] | inhibition at 1 µg/mL (HBV) [%]
CSc1ncc(C(=O)N(C)C)c(Nc2ccc3[nH]ncc3c2)n1 [Example 15, N,N-dimethyl-4-(1H-5-indazolylamino)-2-methylthio-5-pyrimidinecarboxamide] | 42 | 61 | 77 | 101 to 105 | 25 | 52 | 70
CSc1ncc(C(=O)NCCN(C)C)c(Nc2ccc3[nH]ncc3c2)n1 [Example 17, N-[2-(dimethylamino)ethyl]-4-(1H-5-indazolylamino)-2-methylthio-5-pyrimidinecarboxamide] | 15 | 51 | 80 | 111 to 114 | – | – | –
CSc1ncc(C(=O)NCc2cccnc2)c(Nc2ccc3[nH]ncc3c2)n1 [Example 25, 4-(1H-5-indazolylamino)-2-methylthio-N-(3-pyridyl)methyl-5-pyrimidinecarboxamide] | 53 | 76 | 97 | 268 to 270 | 40 | 65 | 92
CSc1ncc(C(=O)NCc2cccnc2)c(Nc2ccc3cn[nH]c3c2)n1 [Example 26, 4-(1H-6-indazolylamino)-2-methylthio-N-(3-pyridyl)methyl-5-pyrimidinecarboxamide] | 55 | 79 | 98 | 253 to 256 | 47 | 75 | 97
CSc1ncc(C(=O)NCCc2ccccn2)c(Nc2ccc3[nH]ncc3c2)n1 [Example 27, 4-(1H-5-indazolylamino)-2-methylthio-N-[2-(2-pyridyl)ethyl]-5-pyrimidinecarboxamide] | 48 | 60 | 88 | 220 to 223 | 38 | 55 | 84
CSc1ncc(C(=O)NCCc2ccccn2)c(Nc2ccc3cn[nH]c3c2)n1 [Example 28, 4-(1H-6-indazolylamino)-2-methylthio-N-[2-(2-pyridyl)ethyl]-5-pyrimidinecarboxamide] | 52 | 70 | 95 | 230 to 231 | 44 | 68 | 93
